Assay results taken from patent publication US5258406A, “Sulfonimidamides” (priority 1992, dated 1993).
Read-outs that look alike come from different tables or passages of the source.

Legend:
[1] = Johnson et al., J. Org. Chem. 44, 2055 (1979); cited from earlier work
6C3HED lymphosarcoma = assay: animal or person; format: in vivo
LX1 = format: in vivo; conditions: oral, DX 10, from day 7 after implant
Experimental: (§1) The compounds were tested in C3H mice bearing a 6C3HED lymphosarcoma, also known as the Gardner lymphosarcoma (GLS), and in a variety of human tumor xenografts in CD1 nu/nu mice, including CX-1, LX-1, HXGC3, and VRC5. The 6C3HED lymphosarcoma was obtained from the Division of Cancer Treatment, National […] Institute, Tumor Bank, maintained at E. G. and G. Mason Research (Worcester, Mass.). The CX-1 human colon carcinoma and the LX-1 human lung carcinoma xenografts were obtained from the National Cancer Institute. The HXGC3 and VRC5 human colon xenografts were obtained from Dr. P. J. Houghton, St. Jude Children's Hospital in Memphis (see Br. J. Cancer, 37, 213 (1978)). First passage tumor was stored in liquid nitrogen using standard techniques. The transplanted tumor was reestablished from the Tumor Bank every six months or as needed. The tumor was maintained by serial passage twice weekly in C3H mice.
(§2) In the procedure the tumor was removed from passage animals and minced into 1- to 3-mm square fragments using sterile techniques. Tumor pieces were checked for sterility using both Antibiotic Medium 1 and Brain Heart Infusion (Difco, Detroit, Mich.). Recipient mice were shaved and tumor pieces were implanted subcutaneously in the auxiliary region by trocar. Drug therapy on the appropriate schedule was initiated on the day after tumor implant for 6C3HED and after a seven (7) day delay for xenografts (or other delay as noted in Table 2). The compound being tested was mixed with 2.5% Emulphor EL620 from GAF Corporation (1:40 dilution in saline). Food and water were provided ad libitium. The drug was administered orally in 0.5 ml of 2.5% Emulphor (unless otherwise indicated). The tumor was measured the day after treatment ended with two dimensional measurements (width and length) of the tumor taken using automated digital calipers interfaced to a microcomputer. Approximate weight for the tumor was calculated using the following formula [Worzalla, J. F., et al., Invest. New Drugs, 8, 241 (1990], (tumor weight in mg)=(width in mm)^2 ×(length in mm)/2.
(§3) At least one control group of an equal number of mice was treated with the same volume of 2.5% Emulphor only. The percent inhibition was determined by subtracting the ratio of the mean tumor size of the test group relative to the control group from one and multiplying the result times 100.
(§4) The results of several experiments in mice bearing a 6C3HED lymphosarcoma (or other tumor where indicated) when the indicated compounds were administered are provided in Table 2. In Table 2, column 1 gives the Example number of the compound used, column 2 lists the dose level in mg/kg, column 3 provides the percent inhibition of tumor growth, column 4 gives the number of mice which died relative to the total number of animals in the group, column 5 gives the method of administration of the compound, and column 6 gives the dosage schedule. The protocol used with other tumors was the same as with the 6C3HED lymphosarcoma.

VRC5 = format: in vivo; conditions: oral, DX 10
Experimental: as §1, §2, §3, §4

HC1 = format: in vivo
Experimental: as §1, §2, §3, §4

Q: With CCCCNC(=O)NS(=N)(=O)c1ccc(C)cc1 (stereo not drawn) [compound 16, N-butyl-N'-(p-toluenesulfonimidoyl)urea] as the compound, how does the “activity in an antidiabetic screen” value [1] read?
A: inactive

Q: For NS(=O)(=NC(=O)Nc1ccc(Cl)cc1)c1ccc(CO)cc1 (stereo not drawn) [Example 50], which “Tox/Tot (mice which died / total)” value (6C3HED lymphosarcoma; IP, 5 mg/kg, BIDX 8) is on record?
A: 0/10

Q: What about the “Tox/Tot (mice which died / total)” value (6C3HED lymphosarcoma; IP, 10 mg/kg, BIDX 8) of the same compound?
A: 0/10

Q: And the “Tox/Tot (mice which died / total)” value (6C3HED lymphosarcoma; IP, 20 mg/kg, BIDX 8)?
A: 0/10

Q: And the “Tox/Tot (mice which died / total)” value (6C3HED lymphosarcoma; IP, 40 mg/kg, BIDX 8)?
A: 1/10

Q: And the “Tox/Tot (mice which died / total)” value (6C3HED lymphosarcoma; IP, 75 mg/kg, BIDX 8)?
A: 0/10

Q: And the “Tox/Tot (mice which died / total)” value (6C3HED lymphosarcoma; IP, 150 mg/kg, BIDX 8)?
A: 0/10

Q: What about the “Tox/Tot (mice which died / total)” value (6C3HED lymphosarcoma; IP, 150 mg/kg, DX 8) of the same compound?
A: 0/10

Q: And the “Tox/Tot (mice which died / total)” value (6C3HED lymphosarcoma; IP, 300 mg/kg, BIDX 8)?
A: 9/10

Q: What about the “Tox/Tot (mice which died / total)” value (6C3HED lymphosarcoma; IP, 300 mg/kg, DX 8) of the same compound?
A: 1/10

Q: What about the inhibition in vivo at 5 mg/kg (6C3HED lymphosarcoma; Mus musculus, 6C3HED, ip, read-out: % inhibition of tumor growth, IP, 5 mg/kg, BIDX 8) of the same compound?
A: 34%

Q: And the inhibition in vivo at 10 mg/kg (6C3HED lymphosarcoma; Mus musculus, 6C3HED, ip, read-out: % inhibition of tumor growth, IP, 10 mg/kg, BIDX 8)?
A: 49%

Q: And the inhibition in vivo at 20 mg/kg (6C3HED lymphosarcoma; Mus musculus, 6C3HED, ip, read-out: % inhibition of tumor growth, IP, 20 mg/kg, BIDX 8)?
A: 72%

Q: What about the inhibition in vivo at 40 mg/kg (6C3HED lymphosarcoma; Mus musculus, 6C3HED, ip, read-out: % inhibition of tumor growth, IP, 40 mg/kg, BIDX 8) of the same compound?
A: 86%

Q: What about the inhibition in vivo at 75 mg/kg (6C3HED lymphosarcoma; Mus musculus, 6C3HED, ip, read-out: % inhibition of tumor growth, IP, 75 mg/kg, BIDX 8) of the same compound?
A: 96%

Q: And the inhibition in vivo at 150 mg/kg (6C3HED lymphosarcoma; Mus musculus, 6C3HED, ip, read-out: % inhibition of tumor growth, IP, 150 mg/kg, BIDX 8)?
A: 99%

Q: And the inhibition in vivo at 150 mg/kg (6C3HED lymphosarcoma; Mus musculus, 6C3HED, ip, read-out: % inhibition of tumor growth, IP, 150 mg/kg, DX 8)?
A: 93%

Q: And the inhibition in vivo at 300 mg/kg (6C3HED lymphosarcoma; Mus musculus, 6C3HED, ip, read-out: % inhibition of tumor growth, IP, 300 mg/kg, BIDX 8)?
A: 100%

Q: And the inhibition in vivo at 300 mg/kg (6C3HED lymphosarcoma; Mus musculus, 6C3HED, ip, read-out: % inhibition of tumor growth, IP, 300 mg/kg, DX 8)?
A: 99%

Q: And the inhibition in vivo at 75 mg/kg (6C3HED lymphosarcoma; Mus musculus, 6C3HED, po, read-out: % inhibition of tumor growth, oral, 75 mg/kg, BIDX 8)?
A: 99%

Q: And the inhibition in vivo at 150 mg/kg (6C3HED lymphosarcoma; Mus musculus, 6C3HED, po, read-out: % inhibition of tumor growth, oral, 150 mg/kg, BIDX 8)?
A: 100%

Q: And the inhibition in vivo at 300 mg/kg (6C3HED lymphosarcoma; Mus musculus, 6C3HED, po, read-out: % inhibition of tumor growth, oral, 300 mg/kg, BIDX 8)?
A: 100%

Q: And the “Tox/Tot (mice which died / total)” value (6C3HED lymphosarcoma; oral, 75 mg/kg, BIDX 8)?
A: 2/10

Q: What about the “Tox/Tot (mice which died / total)” value (6C3HED lymphosarcoma; oral, 150 mg/kg, BIDX 8) of the same compound?
A: 2/10

Q: And the “Tox/Tot (mice which died / total)” value (6C3HED lymphosarcoma; oral, 300 mg/kg, BIDX 8)?
A: 9/10

Q: And the “% inhibition of tumor growth” value (LX1; 150 mg/kg)?
A: 32%

Q: And the “Tox/Tot (mice which died / total)” value (LX1; 150 mg/kg)?
A: 0/10

Q: And the “% inhibition of tumor growth” value (LX1; 300 mg/kg)?
A: 34%

Q: And the “Tox/Tot (mice which died / total)” value (LX1; 300 mg/kg)?
A: 0/10

Q: What about the “% inhibition of tumor growth” value (VRC5; 150 mg/kg) of the same compound?
A: 27%

Q: And the “Tox/Tot (mice which died / total)” value (VRC5; 150 mg/kg)?
A: 0/10

Q: What about the “% inhibition of tumor growth” value (VRC5; 300 mg/kg) of the same compound?
A: 59%

Q: And the “Tox/Tot (mice which died / total)” value (VRC5; 300 mg/kg)?
A: 0/10

Q: What about the “% inhibition of tumor growth” value (HC1; IP 0.6 ml, 5 mg/kg, BIDX 14) of the same compound?
A: 6%

Q: And the “Tox/Tot (mice which died / total)” value (HC1; IP 0.6 ml, 5 mg/kg, BIDX 14)?
A: 0/10

Q: And the “% inhibition of tumor growth” value (HC1; IP 0.6 ml, 10 mg/kg, BIDX 14)?
A: 31%

Q: And the “Tox/Tot (mice which died / total)” value (HC1; IP 0.6 ml, 10 mg/kg, BIDX 14)?
A: 0/10

Q: And the “% inhibition of tumor growth” value (HC1; IP 0.6 ml, 20 mg/kg, BIDX 14)?
A: 33%

Q: And the “Tox/Tot (mice which died / total)” value (HC1; IP 0.6 ml, 20 mg/kg, BIDX 14)?
A: 0/10

Q: And the “% inhibition of tumor growth” value (HC1; IP 0.6 ml, 40 mg/kg, BIDX 14)?
A: 71%

Q: And the “Tox/Tot (mice which died / total)” value (HC1; IP 0.6 ml, 40 mg/kg, BIDX 14)?
A: 1/10

Q: What about the “% inhibition of tumor growth” value (HC1; oral, 75 mg/kg, BIDX 10) of the same compound?
A: 46%

Q: What about the “Tox/Tot (mice which died / total)” value (HC1; oral, 75 mg/kg, BIDX 10) of the same compound?
A: 0/9

Q: And the “% inhibition of tumor growth” value (HC1; oral, 150 mg/kg, BIDX 10)?
A: 23%

Q: And the “Tox/Tot (mice which died / total)” value (HC1; oral, 150 mg/kg, BIDX 10)?
A: 2/9
